We go through four molecules from ChEMBL document CHEMBL1201862, “PubChem BioAssay data set” (2004).

Test systems include CCRF-CEM; EKVX; HCC 2998; HCT-116; LOX IMVI; NCI-H226; NCI/ADR-RES; OVCAR-4; OVCAR-5; RPMI-8226; RXF 393; SF-539; SK-MEL-5; SNB-19; SNB-75; SR; U-251; UO-31.
What all share (experiment): inhibition of tumour cell growth, NCI panel, 48 h

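48-hour exposure; five concentrations; linearly interpolated endpoints. GI50 = concentration required for 50% inhibition of growth.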 Active and inactive are the calls of the source. Rule as the data show it: active = GI50 up to about 1.1 µM and inactive = higher.

With `c1ccc(COc2ccc(C[P+](c3ccccc3)(c3ccccc3)c3ccccc3)cc2)cc1`, the GI50 was 0.627 µM (active) in the test with CCRF-CEM; 0.233 µM (active) with EKVX; 0.16 µM (active) in the test on HCC 2998; 0.104 µM (active) in the test on HCT-116; 0.251 µM (active) with LOX IMVI; 0.504 µM (active) with NCI-H226. Moreover, the GI50 with NCI/ADR-RES is 13.4 µM (inactive); with OVCAR-4, 0.245 µM (active); in the test on OVCAR-5 it was 0.269 µM (active); with RPMI-8226, 0.0257 µM (active); in the test with RXF 393, 0.0395 µM (active); with SF-539 it was 0.284 µM (active). For the same molecule, the GI50 in the test on SK-MEL-5 was 0.108 µM (active); with SNB-19, 0.354 µM (active); in the test with SNB-75 it was 0.148 µM (active); in the test with SR, 0.46 µM (active); in the test on U-251 it was 0.102 µM (active); in the test with UO-31, 2.94 µM (inactive).
`O=C(c1ccccc1)c1ccc(C(c2c(O)c3ccccc3oc2=O)c2c(O)c3ccccc3oc2=O)cc1`: the GI50 in the test on CCRF-CEM is 27.9 µM (inactive); in the test on EKVX, 28 µM (inactive); in the test on HCC 2998, 21 µM (inactive); in the test with HCT-116, 26.7 µM (inactive); in the test on LOX IMVI it was 29.9 µM (inactive); in the test with NCI-H226, 23.3 µM (inactive). Further, the GI50 with NCI/ADR-RES is 22.9 µM (inactive); in the test on OVCAR-4, 26.9 µM (inactive); with OVCAR-5, 23.4 µM (inactive); with RPMI-8226, 18.5 µM (inactive); in the test with RXF 393, 27.2 µM (inactive); in the test on SF-539 it was 30.3 µM (inactive). For the same molecule, the GI50 was 24.5 µM (inactive) in the test with SK-MEL-5; 19.6 µM (inactive) in the test with SNB-19; 19.1 µM (inactive) in the test on SNB-75; 20.1 µM (inactive) in the test with SR; 26.6 µM (inactive) in the test with U-251; 14.8 µM (inactive) in the test on UO-31.
For `COc1cc(/C=C/C(=O)OC2C(O)C3CC(OC(=O)c4cc(OC)c(OC)c(OC)c4)CC2N3C)cc(OC)c1OC` (configuration not stated), the GI50 in the test with CCRF-CEM is 17.9 µM (inactive); in the test on EKVX, > 50 µM (inactive); with HCC 2998, 15 µM (inactive); in the test with HCT-116 it was 20.7 µM (inactive); in the test on LOX IMVI it was 15.3 µM (inactive); in the test with NCI-H226, 12.1 µM (inactive). Moreover, the GI50 was 13.7 µM (inactive) with NCI/ADR-RES; > 50 µM (inactive) in the test with OVCAR-4; > 50 µM (inactive) with OVCAR-5; 33 µM (inactive) with RPMI-8226; 15.9 µM (inactive) in the test on RXF 393; 21.4 µM (inactive) with SF-539. Besides, the GI50 was 16.5 µM (inactive) in the test with SK-MEL-5; 12.9 µM (inactive) with SNB-19; 8.73 µM (inactive) with SNB-75; 10.1 µM (inactive) with SR; 40.5 µM (inactive) in the test on U-251; 10.4 µM (inactive) in the test on UO-31.
Turning to `CC(C)NC(=O)OCc1c2c(n(C)c1COC(=O)NC(C)C)-c1cc(Cl)c(Cl)cc1CC2`, the GI50 in the test with CCRF-CEM is 17.2 µM (inactive); in the test on EKVX, 33.3 µM (inactive); in the test on HCC 2998 it was 14.9 µM (inactive); in the test on HCT-116, 24.8 µM (inactive); with LOX IMVI, 38.3 µM (inactive); in the test on NCI-H226 it was 8.91 µM (inactive). For the same molecule, the GI50 with NCI/ADR-RES is 33.4 µM (inactive); with OVCAR-4 it was 64.6 µM (inactive); with OVCAR-5 it was 25.8 µM (inactive); in the test on RPMI-8226 it was 23.4 µM (inactive); in the test on RXF 393, 21.7 µM (inactive); with SF-539, 50.2 µM (inactive). Moreover, the GI50 with SK-MEL-5 is 42.7 µM (inactive); with SNB-19, 37.8 µM (inactive); in the test with SNB-75, 29.4 µM (inactive); with SR, > 100 µM (inactive); in the test on U-251, 18.2 µM (inactive); in the test on UO-31 it was 27 µM (inactive).
